Source: EP4670717A1, “PYRROLIDINE-FUSED MYRTANOL DERIVATIVES AS INHIBITORS AND/OR DEGRADERS OF IDO1 UND USE THEREOF” (Max-Planck-Gesellschaft zur Förderung der Wissenschaften …, priority 2024, dated 2025)
Entries after “also recorded” stand apart in the source; their conditions may differ.

How the values were obtained:
IDO1 [1] = biological target: T1, IDO1 (Homo sapiens, UniProt P14902); assay: Kyn assay in BxPC-3 cells (Kyn levels after IFN-γ and Trp); format: cell-based; conditions: for IC50: BxPC-3 cells incubated with IFN-γ, Trp and the compounds for 48 h, read-out: Kyn assay IC50 ± SD; for activity in the cell-based kynurenine assay: result in words;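 as to all read-outs here: kyn levels expressed relative to DMSO-treated control cells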
T1 construct: BxPC3 cells were seeded in phenol red-free RPMI 1640 medium; endogenous in cells; host or cells: BxPC3 cells stimulated with IFN-γ (50 ng/mL)
T1 sequence (P14902 whole entry): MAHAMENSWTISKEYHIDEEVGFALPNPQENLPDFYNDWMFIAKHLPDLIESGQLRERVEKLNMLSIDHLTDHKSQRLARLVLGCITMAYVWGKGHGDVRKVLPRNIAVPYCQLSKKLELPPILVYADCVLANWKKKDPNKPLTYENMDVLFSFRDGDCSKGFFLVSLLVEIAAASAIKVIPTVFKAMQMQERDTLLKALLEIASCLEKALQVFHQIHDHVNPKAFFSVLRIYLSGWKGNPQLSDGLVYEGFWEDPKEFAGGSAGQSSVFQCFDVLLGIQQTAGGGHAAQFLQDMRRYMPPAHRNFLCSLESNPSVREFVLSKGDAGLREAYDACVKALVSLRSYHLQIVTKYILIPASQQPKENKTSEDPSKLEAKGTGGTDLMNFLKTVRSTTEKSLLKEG
Procedure: BxPC3 cells were seeded in phenol red-free RPMI 1640 medium in 1536-well or 384-well plates (Greiner #782086, Corning #3770) 24 h prior to the addition of compounds, IFN-γ (50 ng/mL, PeproTech) and L-Trp (380 µM, Sigmal-Aldrich). After 48 h of incubation, first cell viability was accessed by the addition of Hoechst-33342. Afterwards, trichloroacetic acid (TCA, Sigma-Aldrich) was added to a final concentration of 7 % and incubated for 10 min prior to a centrifugation step of 10 min at 1620 × g. Kyn levels were determined by means of the Kyn sensor^7 at a final concentration of 17.5 µM in sensor buffer (50 mM H3PO4 and 120 mM NaCl (pH=1)). Fluorescence intensity (excitation: 535 nm, emission: 595 nm) was measured using a Spectramax Paradigm reader (Molecular Devices). Data were normalized to the values for cells that were treated with DMSO.
For the manual assay, BxPC3 or SKOV3 cells were seeded in clear 96-well or 384-well plates, respectively, 24 h prior to compound treatment and IFN-γ (50 or 5 ng/mL, respectively) and L-Trp (380 µM) addition as described before.^7 48 h after treatment, TCA was added and Kyn levels were detected by means of 2 % w/v of p-DMAB (Ehrlich reagent) in acetic acid as described by Braun et al^29. The absorbance of the Ehrlich reagent was detected at 492 nm and at 650 nm as background control was measured on Spark® multimode microplate plate reader (Tecan, Austria). Kyn levels were determined by subtracting the absorbance value at 650 nm and presented relative to the DMSO control. Dose-response curves and IC50 values were generated and fitted with GraphPad Prism 6.0 (GraphPad software, USA) using four-parameter variable slope non-linear regression curve fit.
Cells were incubated with IFN-γ, Trp and the compounds for 48 h prior to detection of Kyn levels.

[2] = biological target: T2, recombinant human IDO1 (rhIDO1) (Homo sapiens, UniProt P14902); assay: IDO1 enzymatic assay with recombinant protein, Kyn detection with p-DMAB; format: biochemical; conditions: in vitro inhibition at 59 uM; pre-incubated with compounds at 37°C for 40 min
T2 construct: Full-length rhIDO protein (1 µM) in 50 mM potassium phosphate buffer; GST (cleaved yes); made in house; host or cells: E. coli
T2 sequence (P14902 whole entry): as above
Source text: Reduction of the kynurenine level in the cell-based model employed for initial SAR exploration can be due to inhibition of enzymatic activity, degradation of IDO1, or both (Table B-2). In order to differentiate between these different activities, we explored the modes of action of selected compounds in an in vitro assay employing recombinant human IDO1 (rhIDO1) monitoring enzymatic activity only, and we characterized the degradation efficiency by means of Western blotting, determining maximum degradation levels at 0.1µM (Dmax) and half maximum degradation concentration (DC50) (Table B-2). Table B-2 in vitro inhibition and degradation of IDO1 by selected compounds. […] Data are mean values ± SD (n = 4, except for compounds 1, 11, and 19 (n=2)). […] Data are mean values of n biological replicates. Dmax corresponds to maximum levels of IDO1 degradation at 0.1 µM.
Full-length rhIDO protein (1 µM) in 50 mM potassium phosphate buffer (50 mM KH2PO4 and 50 mM K2HPO4, pH 6.5) was incubated with the respective compounds for 40 min at 37 °C prior to the addition of 10 mM ascorbic acid, 10 µM methylene blue, 2 mM Trp and 100 µg/mL catalase (Sigma-Aldrich, C100). Samples were incubated for 60 min followed by the addition of trichloroacetic acid to a final concentration of 7 % and further incubation for 30 min at 37 °C. Kyn levels were detected by the addition of an equal volume of 2 % (w/v) p-DMAB in acetic acid and absorbance was measured at 492 nm and 650 nm as a background control. Values are presented relative to the DMSO control. Dose-response curves and IC50 values were generated and fitted with GraphPad Prism 6.0 (GraphPad software, USA) using four-parameter variable slope non-linear regression curve fit.

IDO1 [3] = biological target: T1, IDO1; assay: IDO1 degradation in BxPC3 cells, IDO1 protein levels by immunoblotting; format: cell-based; conditions: 50 ng/ml IFN-γ 24 h, washout, compound (100 nM) 24 h, maximum IDO1 degradation at 0.1 µM; for Dmax at 0.1 µM: BXPC-3, BxPC3 cells; for Dmax [%] (n): BxPC3 cells;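 as to all read-outs here: IDO1 bands on Western blots detected with fluorescent dye-labelled secondary antibodies and quantified by band intensity, values are means of n biological replicates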
Procedure: To analyze IDO1 levels, IFN-γ-stimulated BxPC3 cells (50 ng/mL IFN-γ), U2OS cells (5 ng/mL IFN-γ), HEK^rhIDO1 (HEK293T cells electroporated with rhIDO1), SKOV3 and BT549 cells were treated with compounds for the indicated times (6 h to 24 h) followed by cell lysis (150 mM sodium chloride in 50 mM Tris (pH 8.0) and 1% NP-40 Alternative, protease and phosphatase inhibitors). Protein concentrations were determined (DC protein assay, Bio-Rad) followed by addition of 1 × SDS loading buffer and protein separation by a 10% SDS-PAGE. Separated protein samples were transferred to a polyvinylidene difluoride (PVDF) membrane using a wet-tank blotting system (Bio-Rad). IDO1 as well as vinculin as a loading were detected using the primary antibodies anti-IDO1 (ab211017, abcam or 14-9750-80, Thermo Fisher), anti-vinculin (V9131, Thermo Fisher) and anti-β-actin (ab8227, abcam) in 5 % milk in PBS-buffered saline with 0.05 % (v/v) Tween-20 (PBS-T). Primary antibodies were incubated at 4°C overnight and detected with IRDye-conjugated secondary antibodies (LI-COR Biosciences). IDO1 protein level in BT549 and SKOV3 cells was detected with HRP conjugated secondary antibody and SuperSignal™ West Dura Extended Duration Substrat (Thermo Fisher Scientific). Washing steps were performed with PBS-T. Protein bands were visualized by ChemiDoc™ MP (Bio-Rad) using a fluorescent readout. Band intensities were quantified using Image Lab software.
In order to differentiate between these different activities, we explored the modes of action of selected compounds in an in vitro assay employing recombinant human IDO1 (rhIDO1) monitoring enzymatic activity only, and we characterized the degradation efficiency by means of Western blotting, determining maximum degradation levels at 0.1µM (Dmax) and half maximum degradation concentration (DC50) (Table B-2). […] Data are mean values of n biological replicates. Dmax corresponds to maximum levels of IDO1 degradation at 0.1 µM.

| SMILES | IC50 (IDO1 [1]) [nM] | Dmax at 0.1 µM (IDO1 [3]) [%] | further results |
| --- | --- | --- | --- |
| Cc1ccc(NC(=O)OC[C@]23CN(S(=O)(=O)c4ccc(C(C)(C)C)cc4)C[C@H]2C[C@H]2C[C@@H]3C2(C)C)cc1 [compound 1, ((3aS,4R,6R,7aS)-2-((4-(tert-butyl)phenyl)sulfonyl)-5,5-dimethyloctahydro-3aH-4,6-methanoisoindol-3a-yl)methyl p-tolylcarbamate] | 200 to 1000 | – | rhIDO1 enzymatic activity Inhibition [%] [2]: not active; also recorded: inactive |
| CC(C)(C)c1ccc(S(=O)(=O)N2C[C@H]3C[C@H]4C[C@H](C4(C)C)[C@@]3(COC(=O)Nc3ccc(I)cc3)C2)cc1 [compound 11, ((3aS,4R,6R,7aS)-2-((4-(tert-butyl)phenyl)sulfonyl)-5,5-dimethyloctahydro-3aH-4,6-methanoisoindol-3a-yl)methyl (4-iodophenyl)carbamate] | < 200 | 37 | fold more potent in the Kyn assay than compound 1 (IDO1 [1]; relative to compound 1): 7 fold; activity in the cell-based kynurenine assay (IDO1 [1]): low nanomolar range; rhIDO1 enzymatic activity Inhibition [%] [2]: not active; also recorded: inactive |
| C#Cc1ccc(NC(=O)OC[C@]23CN(S(=O)(=O)c4ccc(C(C)(C)C)cc4)C[C@H]2C[C@H]2C[C@@H]3C2(C)C)cc1 [compound 19] | < 200 | > 60 | activity in the cell-based kynurenine assay (IDO1 [1]): low nanomolar range; Dmax [%] (n) (IDO1 [3]): 62 ± 10 (5) %; inhibition at 59 µM [2]: 49 ± 0.6% |
| CCC(C)(C)c1ccc(S(=O)(=O)N2C[C@H]3C[C@H]4C[C@H](C4(C)C)[C@@]3(COC(=O)Nc3ccc(I)cc3)C2)cc1 [compound 48, ((3aS,4R,6R,7aS)-5,5-dimethyl-2-((4-(tert-pentyl)phenyl)sulfonyl)octahydro-3aH-4,6-methanoisoindol-3a-yl)methyl (4-iodophenyl)carbamate] | < 200 | – | – |
| CC1(C)[C@H]2C[C@@H]3CN(S(=O)(=O)c4ccc([Si](C)(C)C)cc4)C[C@]3(COC(=O)Nc3ccc(I)cc3)[C@@H]1C2 [compound 50, ((3aS,4R,6R,7aS)-5,5-dimethyl-2-((4-(trimethylsilyl)phenyl)sulfonyl)octahydro-3aH-4,6-methanoisoindol-3a-yl)methyl (4-iodophenyl)carbamate] | 200 to 1000 | – | – |
| COCCOCC(C)(C)c1ccc(S(=O)(=O)N2C[C@H]3C[C@H]4C[C@H](C4(C)C)[C@@]3(COC(=O)Nc3ccc(I)cc3)C2)cc1 [compound 58, ((3aS,4R,6R,7aS)-2-((4-(1-(2-methoxyethoxy)-2-methylpropan-2-yl)phenyl)sulfonyl)-5,5-dimethyloctahydro-3aH-4,6-methanoisoindol-3a-yl)methyl (4-iodophenyl)carbamate] | < 200 | – | – |
| CC(C)(C(=O)N1CCOCC1)c1ccc(S(=O)(=O)N2C[C@H]3C[C@H]4C[C@H](C4(C)C)[C@@]3(COC(=O)Nc3ccc(I)cc3)C2)cc1 [compound 59, ((3aS,4R,6R,7aS)-5,5-dimethyl-2-((4-(2-methyl-1-morpholino-1-oxopropan-2-yl)phenyl)sulfonyl)octahydro-3aH-4,6-methanoisoindol-3a-yl)methyl (4-iodophenyl)carbamate] | 5000 to 10000 | – | – |
| CN(C)C(=O)C(C)(C)c1ccc(S(=O)(=O)N2C[C@H]3C[C@H]4C[C@H](C4(C)C)[C@@]3(COC(=O)Nc3ccc(I)cc3)C2)cc1 [compound 60, ((3aS,4R,6R,7aS)-2-((4-(1-(dimethylamino)-2-methyl-1-oxopropan-2-yl)phenyl)sulfonyl)-5,5-dimethyloctahydro-3aH-4,6-methanoisoindol-3a-yl)methyl (4-iodophenyl)carbamate] | 200 to 1000 | – | – |
| CN(C)CC(C)(C)c1ccc(S(=O)(=O)N2C[C@H]3C[C@H]4C[C@H](C4(C)C)[C@@]3(COC(=O)Nc3ccc(I)cc3)C2)cc1 [compound 61, ((3aS,4R,6R,7aS)-2-((4-(1-(dimethylamino)-2-methylpropan-2-yl)phenyl)sulfonyl)-5,5-dimethyloctahydro-3aH-4,6-methanoisoindol-3a-yl)methyl (4-iodophenyl)carbamate] | 1000 to 5000 | – | – |
| COC(=O)CC(C)(C)c1ccc(S(=O)(=O)N2C[C@H]3C[C@H]4C[C@H](C4(C)C)[C@@]3(COC(=O)Nc3ccc(I)cc3)C2)cc1 [compound 62, Methyl 3-(4-(((3aS,4R,6R,7aS)-3a-((((4-iodophenyl)carbamoyl)oxy)methyl)-5,5-dimethyloctahydro-2H-4,6-methanoisoindol-2-yl)sulfonyl)phenyl)-3-methylbutanoate] | < 200 | – | – |
| C#Cc1ccc(NC(=O)OC[C@]23CN(S(=O)(=O)c4ccc(C(C)(C)C(=O)O)cc4C)C[C@H]2C[C@H]2C[C@@H]3C2(C)C)cc1 [compound 75, 2-(4-(((3aS,4R,6R,7aS)-3a-((((4-ethynylphenyl)carbamoyl)oxy)methyl)-5,5-dimethyloctahydro-2H-4,6-methanoisoindol-2-yl)sulfonyl)-3-methylphenyl)-2-methylpropanoic acid] | < 200 | 27 ± 14 | activity in the cell-based kynurenine assay (IDO1 [1]): low nanomolar range |
| C#Cc1ccc(NC(=O)OC[C@]23CN(S(=O)(=O)c4ccc(C5(C(F)(F)F)N=N5)cc4)C[C@H]2C[C@H]2C[C@@H]3C2(C)C)cc1 [compound 76, ((3aS,4R,6R,7aS)-5,5-dimethyl-2-((4-(3-(trifluoromethyl)-3H-diazirin-3-yl)phenyl)sulfonyl)octahydro-3aH-4,6-methanoisoindol-3a-yl)methyl (4-ethynylphenyl) carbamate] | < 200 | – | – |

Now from value to compound, other results behind:

| IC50 (IDO1 [1]) [nM] | Dmax at 0.1 µM (IDO1 [3]) [%] | SMILES | further results |
| --- | --- | --- | --- |
| < 200 | 55 to 59 | COc1cc(C(C)(C)C)ccc1S(=O)(=O)N1C[C@H]2C[C@H]3C[C@H](C3(C)C)[C@@]2(COC(=O)Nc2ccc(I)cc2)C1 [compound 55, ((3aS,4R,6R,7aS)-2-((4-(tert-butyl)-2-methoxyphenyl)sulfonyl)-5,5-dimethyloctahydro-3aH-4,6-methanoisoindol-3a-yl)methyl (4-iodophenyl)carbamate] | Dmax [%] (n) (IDO1 [3]): 59 ± 16 (3) % |
| < 200 | 55 to 59 | CC(C)(C)c1ccc(S(=O)(=O)N2C[C@H]3C[C@H]4C[C@H](C4(C)C)[C@@]3(COC(=O)Nc3ccc(I)cc3)C2)c(I)c1 [compound 57, ((3aS,4R,6R,7aS)-2-((4-(tert-butyl)-2-iodophenyl)sulfonyl)-5,5-dimethyloctahydro-3aH-4,6-methanoisoindol-3a-yl)methyl (4-iodophenyl)carbamate] | Dmax [%] (n) (IDO1 [3]): 55 ± 5 (3) % |
| 200 to 1000 | – | CCOC(=O)C(C)(C)c1ccc(S(=O)(=O)N2C[C@H]3C[C@H]4C[C@H](C4(C)C)[C@@]3(COC(=O)Nc3ccc(I)cc3)C2)cc1 [compound 64, Ethyl 2-(4-(((3aS,4R,6R,7aS)-3a-((((4-iodophenyl)carbamoyl)oxy)methyl)-5,5-dimethyloctahydro-2H-4,6-methanoisoindol-2-yl)sulfonyl)phenyl)-2-methylpropanoate] | – |
| < 200 | – | COC(=O)C(C)(C)c1ccc(S(=O)(=O)N2C[C@H]3C[C@H]4C[C@H](C4(C)C)[C@@]3(COC(=O)Nc3ccc(I)cc3)C2)c(OC)c1 [compound 66, Methyl 2-(4-(((3aS,4R,6R,7aS)-3a-((((4-iodophenyl)carbamoyl)oxy)methyl)-5,5-dimethyloctahydro-2H-4,6-methanoisoindol-2-yl)sulfonyl)-3-methoxyphenyl)-2-methylpropanoate] | – |
| < 200 | 0 | COc1cc(C(C)(C)C(=O)O)ccc1S(=O)(=O)N1C[C@H]2C[C@H]3C[C@H](C3(C)C)[C@@]2(COC(=O)Nc2ccc(I)cc2)C1 [compound 67, 2-(4-(((3aS,4R,6R,7aS)-3a-((((4-iodophenyl)carbamoyl)oxy)methyl)-5,5-dimethyloctahydro-2H-4,6-methanoisoindol-2-yl)sulfonyl)-3-methoxyphenyl)-2-methylpropanoic acid] | – |
| < 200 | – | COC(=O)C(C)(C)c1ccc(S(=O)(=O)N2C[C@H]3C[C@H]4C[C@H](C4(C)C)[C@@]3(COC(=O)Nc3ccc(I)cc3)C2)c(Cl)c1 [compound 68, Methyl 2-(3-chloro-4-(((3aS,4R,6R,7aS)-3a-((((4-iodophenyl)carbamoyl)oxy)methyl)-5,5-dimethyloctahydro-2H-4,6-methanoisoindol-2-yl)sulfonyl)phenyl)-2-methylpropanoate] | rhIDO1 enzymatic activity Inhibition [%] [2]: inactive |
